Test results taken from patent publication US8357786B2, “Method for preparing Gynostemma pentaphyllum extract with increasing damulin A and damulin B contents, and pharmaceutical compositions of the same for treating metabolic disease” (TG Biotech Co., Ltd., priority 2009, dated 2013).

Tests used:
Type in all cases: cell-based
L6 myotube cells [1] = experiment: β-oxidation of fatty acid in L6 myotube cells
Method: When AMPK is activated, the activity of ACC is reduced, thereby reducing the concentration of malonyl-CoA within mitochondria. This accelerates the transport of fatty acid into mitochondria, and thereby increases β-oxidation. Thus, due to the reduction of body fat, an obesity inhibiting effect can be achieved. Cultured L6 myotube cells were treated with purely separated damulin A and damulin B, and the improving effect on β-oxidation of fatty acid was analyzed by the method of Hwang, et al. (Biochem. Biophys. Res. Commun. 377, 1253-1258).
As a result, it was observed that damulin A (30 μg/ml) and damulin B (5 μg/ml) increased β-oxidation of fatty acid 1.8 times and 2.6 times (see FIG. 5).

L6 myotube cells [2] = experiment: 2-DG (glucose) absorption into L6 myotube cells
Description: It is well known that the activation of AMPK also increases the glucose absorption into cells, and thus causes a blood glucose level reducing effect (Hardie, et al., FEBS Lett. 546, 113-120, 2003; Carling, et al., Trends. Biochem. Sci. 29, 18-24, 2004; Kahn, et al., Cell Metab. 1, 15-25, 2005; Cool, et al., Cell Metab. 3. 403-416, 2006; Lee et al., Diabetes, 55, 2256-2264, 2006; Hwang et al., Biochem. Biophys. Res. Commun. 371, 289-293, 2008). Accordingly, the treatment of damulin A and damulin B on L6 myotube cells was carried out to determine the influence on the glucose absorption into cells.
To cultured L6 myotube cells, high concentration glucose was added together with 2-DG (2-deoxy-[3H]D-glucose) (a radioactive isotope that is not decomposed within a cell) according to the method of Hwang et al. (Biochem. Biophys. Res. Commun. 377, 1253-1258), and then the accelerated extent of 2-DG absorption into cells by damulin A (30 μg/ml) and damulin B (5 μg/ml) was analyzed. As a result, in the damulin A-treated cells, the capability of absorbing glucose was increased by 42% on the average, and in the damulin B-treated cells, the capability was increased by about 79% (see FIG. 6). Therefore, based on the result, both damulin A and damulin B are determined to have a high anti-diabetes effect by decreasing blood glucose level.

AMPK = experiment: Phosphorylation of AMPK (Thr-172 of α subunit) in L6 myotube cells, western blot; details: 2 hours, damulin A 10, 30, 60 μg/ml, damulin B 1, 5, 10 μg/ml, compared to control group
Description: The activity of AMPK may be determined by determining whether or not the phosphorylation of a threonine amino acid residue at position 172 was increased.

[3] = test system: ACC (acetyl-CoA carboxylase); experiment: Phosphorylation of ACC (Ser-79) in L6 myotube cells, western blot; details: 2 hours, damulin A 10, 30, 60 μg/ml, damulin B 1, 5, 10 μg/ml, compared to control group
Description: ACC is an important enzyme for regulating lipid metabolism in liver and muscle tissues. This enzyme carboxylates acetyl-CoA to produce malonyl-CoA. Malonyl-CoA is the most important factor for regulating β-oxidation of fatty acid within mitochondria. When the concentration of malonyl-CoA increases, the activity of CPT-1 (carnitine palmitoyl-CoA transferase) in mitochondrial membrane is reduced, thereby inhibiting β-oxidation of fatty acid, and on the other hand, when the concentration of malonyl-CoA decreases, β-oxidation is increased, accelerating the reduction of body fat. ACC is a subordinate target protein in AMPK activity, and is phosphorylated by the activation of AMPK. […]
Accordingly, differentiated L6 myotube cells were treated with individually separated damulin A with different concentrations (10, 30, and 60 μg/ml), and treated with individually separated damulin B with different concentrations (1, 5, and 10 μg/ml), for 2 hours. The increased extent of the phosphorylation of a threonine residue at (Thr)-172 of AMPK α subunit, and a serine residue at Ser-79 of an ACC enzyme protein was analyzed through western blot analysis according to the method of Hwang, et al. (Biochem. Biophys. Res. Commun. 371, 289-293, 2008). […] Also, both damulin A and damulin B were determined to be active ingredients which phosphorylate and activate AMPK, and phosphorylate and inactivate ACC. […]

Structure (SMILES) | increase of β-oxidation of fatty acid (L6 myotube cells [1]; 30 μg/ml) [times] | increase of capability of absorbing glucose (2-DG absorption into cells) (L6 myotube cells [2]; 30 μg/ml) [%] | phosphorylation of threonine residue (Thr)-172 of AMPK α subunit (AMPK) | phosphorylation of serine residue Ser-79 of ACC [3] | increase of β-oxidation of fatty acid (L6 myotube cells [1]; 5 μg/ml) [times] | increase of capability of absorbing glucose (2-DG absorption into cells) (L6 myotube cells [2]; 5 μg/ml)
CC(C)=CC/C=C(/C)[C@H]1CC[C@]2(C)C1[C@H](O)CC1[C@@]3(C)C[C@@H](O)[C@H](OC4OC(CO)[C@@H](O)[C@H](O)[C@@H]4OC4OC(CO)[C@@H](O)[C@H](O)[C@@H]4O)C(C)(C)C3CC[C@]12C (stereo partly drawn) [damulin A, 2α,3β,12β-trihydroxydammar-20(22)-E,24-diene-3-O-[β-D-glucopyranosyl-(1→)-β-D-glucopyranoside]] | 1.8 | 42 | concentration-dependently increased the phosphorylation | concentration-dependently increased the phosphorylation | – | –
C=C(CCC=C(C)C)[C@H]1CC[C@]2(C)C1[C@H](O)CC1[C@@]3(C)C[C@@H](O)[C@H](OC4OC(CO)[C@@H](O)[C@H](O)[C@@H]4OC4OC(CO)[C@@H](O)[C@H](O)[C@@H]4O)C(C)(C)C3CC[C@]12C (stereo partly drawn) [damulin B, 2α,3β,12β-trihydroxydammara-20,24-diene-3-O-[β-D-glucopyranosyl-(1→)-β-D-glucopyranoside]] | – | – | concentration-dependently increased the phosphorylation | concentration-dependently increased the phosphorylation | 2.6 | about 79%
